The record followed here is patent US11878970B2, “Allosteric chromenone inhibitors of phosphoinositide 3-kinase (PI3K) for the treatment of disease” (Petra Pharma Corporation, priority 2021, dated 2024).

SMILES strings stand for the structures. Where only a bound is given, the exact number is not on record here.

Assay [1] addresses T1, PI3K-α (PIK3CA) wild-type (WT), p110α/p85α complex (Homo sapiens, UniProt P42336).
T1 construct: Recombinant, catalytically active human full length PIK3KA Wild-type and H1047R mutant; 6×His (N); purchased EMD Millipore Sigma 14-602M
The assay can be described thus: PI3K-alpha kinase (PIK3CA) biochemical activity, ADP-Glo, wild-type. The conditions noted are these: Soy PI lipid substrate. Put shortly: (§1)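 ADP formation measured by ADP-Glo luminescence after reaction at 27 °C to about 10% ATP turnover, using 20 uM ATP, 50 uM PIP2diC8 or soy PI lipid, HEPES pH 7.4 with MgCl2. Enzyme (1-5 nM WT or H1047R p110α/p85α) and compound preincubated 1 h first; 10-point 1:3 curves fitted four-parameter for IC50.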
(In general: ADP-Glo turns the ADP formed in a reaction into a luminescent signal.)

In assay [2] the target is T2, PI3K-α (PIK3CA) H1047R mutant, p110α/p85α complex (Homo sapiens, UniProt P42336, H1047R).
T2 construct: Recombinant, catalytically active human full length PIK3KA Wild-type and H1047R mutant; 6×His (N); purchased EMD Millipore Sigma 14-792M
T2 sequence (P42336 whole entry H1047R): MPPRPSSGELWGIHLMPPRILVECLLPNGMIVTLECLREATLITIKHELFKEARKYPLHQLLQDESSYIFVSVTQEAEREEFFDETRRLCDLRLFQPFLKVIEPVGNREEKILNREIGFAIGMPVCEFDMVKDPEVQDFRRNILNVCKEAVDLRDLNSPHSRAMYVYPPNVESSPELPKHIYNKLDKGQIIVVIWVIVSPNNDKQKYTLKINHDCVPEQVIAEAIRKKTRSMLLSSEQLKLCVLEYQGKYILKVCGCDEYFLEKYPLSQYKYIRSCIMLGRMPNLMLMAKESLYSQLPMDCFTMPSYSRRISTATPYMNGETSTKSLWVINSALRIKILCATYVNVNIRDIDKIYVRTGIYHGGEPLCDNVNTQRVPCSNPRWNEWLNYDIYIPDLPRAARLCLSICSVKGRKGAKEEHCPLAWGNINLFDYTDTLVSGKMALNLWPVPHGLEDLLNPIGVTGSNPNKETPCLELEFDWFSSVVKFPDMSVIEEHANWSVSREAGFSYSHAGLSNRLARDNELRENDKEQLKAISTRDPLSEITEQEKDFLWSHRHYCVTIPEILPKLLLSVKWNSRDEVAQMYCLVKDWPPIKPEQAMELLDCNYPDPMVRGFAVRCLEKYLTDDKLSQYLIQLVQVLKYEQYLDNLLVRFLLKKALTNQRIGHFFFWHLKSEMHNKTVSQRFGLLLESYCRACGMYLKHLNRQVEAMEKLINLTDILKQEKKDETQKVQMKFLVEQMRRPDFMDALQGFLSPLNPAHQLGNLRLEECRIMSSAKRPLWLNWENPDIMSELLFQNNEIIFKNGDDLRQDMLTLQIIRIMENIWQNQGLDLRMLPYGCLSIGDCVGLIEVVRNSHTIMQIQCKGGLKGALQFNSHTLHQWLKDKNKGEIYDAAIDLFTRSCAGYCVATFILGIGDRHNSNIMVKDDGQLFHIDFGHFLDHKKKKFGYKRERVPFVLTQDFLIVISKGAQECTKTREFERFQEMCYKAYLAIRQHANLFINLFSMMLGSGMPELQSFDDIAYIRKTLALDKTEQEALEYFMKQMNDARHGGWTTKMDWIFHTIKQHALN
T2 sequence (P27986 whole entry partner): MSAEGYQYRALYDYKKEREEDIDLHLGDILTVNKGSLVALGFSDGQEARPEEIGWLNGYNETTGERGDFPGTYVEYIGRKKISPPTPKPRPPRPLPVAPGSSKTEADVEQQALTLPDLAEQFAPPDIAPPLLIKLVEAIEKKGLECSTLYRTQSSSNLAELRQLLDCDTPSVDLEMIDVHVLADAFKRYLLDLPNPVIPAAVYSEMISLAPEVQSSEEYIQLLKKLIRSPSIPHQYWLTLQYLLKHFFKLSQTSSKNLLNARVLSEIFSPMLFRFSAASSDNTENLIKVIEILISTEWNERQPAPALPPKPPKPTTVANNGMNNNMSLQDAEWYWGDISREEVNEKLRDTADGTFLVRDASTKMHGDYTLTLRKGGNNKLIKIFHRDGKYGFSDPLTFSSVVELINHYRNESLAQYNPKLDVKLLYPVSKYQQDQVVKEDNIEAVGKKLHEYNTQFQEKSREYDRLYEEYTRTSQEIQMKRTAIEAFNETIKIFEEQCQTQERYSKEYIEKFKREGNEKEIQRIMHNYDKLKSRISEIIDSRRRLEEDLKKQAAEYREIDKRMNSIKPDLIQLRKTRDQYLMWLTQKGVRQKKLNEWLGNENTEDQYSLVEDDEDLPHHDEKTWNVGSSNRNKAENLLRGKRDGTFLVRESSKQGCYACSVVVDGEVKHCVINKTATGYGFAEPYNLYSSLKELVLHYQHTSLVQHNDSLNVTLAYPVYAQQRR
The experiment in a line: PI3K-alpha kinase (PIK3CA) biochemical activity, ADP-Glo, H1047R mutant. The conditions noted are these: Soy PI lipid substrate. Put shortly: as §1

The target in assay [3] is PI3K-α (PIK3CA) in MDA-MB-453 cells (Homo sapiens, UniProt P42336). The assay can be described thus: PI3K-alpha kinase (PIK3CA) in vitro cell based assay, MDA-MB-453 cells, SureFire Ultra AlphaLisa. The note with it: read-out: PI3K-α (PIK3CA) in vitro cell based assay IC50. The method, then: PI3K-Alpha Kinase (PIK3CA) Activity In Vitro Cell Based Assay and Determining IC50 Values for Inhibitors
Chain of PI3K-α (PIK3CA) in MDA-MB-453 cells (P27986 2-724): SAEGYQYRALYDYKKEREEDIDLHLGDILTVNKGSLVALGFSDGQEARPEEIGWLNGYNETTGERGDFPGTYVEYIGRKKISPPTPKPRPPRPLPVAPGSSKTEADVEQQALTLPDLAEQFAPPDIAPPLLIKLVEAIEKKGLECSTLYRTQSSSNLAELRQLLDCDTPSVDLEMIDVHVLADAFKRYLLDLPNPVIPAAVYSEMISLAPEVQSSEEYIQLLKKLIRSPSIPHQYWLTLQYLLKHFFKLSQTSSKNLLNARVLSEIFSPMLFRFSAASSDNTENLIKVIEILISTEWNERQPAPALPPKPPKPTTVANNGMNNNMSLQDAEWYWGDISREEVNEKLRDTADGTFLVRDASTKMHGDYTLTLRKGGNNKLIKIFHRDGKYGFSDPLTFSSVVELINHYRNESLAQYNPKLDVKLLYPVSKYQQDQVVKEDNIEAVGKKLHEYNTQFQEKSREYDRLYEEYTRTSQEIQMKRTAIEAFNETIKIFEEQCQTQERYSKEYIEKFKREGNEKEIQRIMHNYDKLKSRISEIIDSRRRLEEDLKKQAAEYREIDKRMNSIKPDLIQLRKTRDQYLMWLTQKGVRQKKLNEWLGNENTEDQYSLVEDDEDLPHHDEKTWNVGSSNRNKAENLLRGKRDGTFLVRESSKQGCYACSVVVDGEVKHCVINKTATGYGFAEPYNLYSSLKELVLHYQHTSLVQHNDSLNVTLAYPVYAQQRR
Chain of PI3K-α (PIK3CA) in MDA-MB-453 cells (P42336 whole entry): as the sequence (P42336 whole entry H1047R) above, with R1047H counted along it
The MDA-MB-453 (ATCC-HTB-131) cell line was obtained from the American Type Culture Collection (Manassas, VA). Cells were maintained in Dulbecco's Modified Eagle Media (DMEM, Gibco 11965-092) supplemented with 10% Fetal Bovine Serum, heat inactivated (FBS HI, Gibco 10082-147), 1× non-essential amino acids (NEAA, Gibco 11140-050), and 1 mM sodium pyruvate (Gibco 11360-070). Cultures were maintained in a humidified incubator at 37° C. under 5% CO2/95% air.
For compound testing in 0% FBS, MDA-MB-453 cells were seeded at a density of 1.5×10^4 cells per well in white 384-well plates in 20 μl of Minimum Essential Media (MEM) assay media with 1×NEAA, 1 mM sodium pyruvate, and 1 μg/mL human insulin (Sigma I9278). Compounds dissolved in 10 mM stock solutions in DMSO were serially diluted 1:3 in DMSO to generate a 10-point dilution series and plated using an acoustic liquid handler system (Echo 550 Series Liquid Handler, Labcyte). A 5× intermediate compound dilution plate in MEM with 1×NEAA and 1 mM sodium pyruvate (150 μM starting compound concentration in 1.5% DMSO) was then prepared. Five μl of the intermediate serially diluted compounds were added to the cell plate to final concentrations ranging from […] in 0.3% DMSO. 0.3% DMSO alone was used to establish the maximum (MAX) signal and GDC-0032 at a final concentration of 1 μM was used as a reference compound for the minimum (MIN) signal. After 3 hours treatment, the medium was removed, and the cells lysed in 10 μL of 1× SureFire Lysis buffer with shaking for 10 minutes at room temperature. The Acceptor Mix (Reaction Buffer 1+Reaction Buffer 2+Activation Buffer+SureFire Ultra Acceptor Beads) was prepared by diluting Activation buffer 25-fold in combined Reaction Buffer 1 and Reaction Buffer 2. The Acceptor beads were diluted 50-fold in the combined Reaction Buffers. Five μL of Acceptor Mix was added to each well, the plate was sealed and covered with foil and incubated for 1 hour at room temperature. The Donor Mix (dilution buffer+SureFire Ultra Donor Beads) was prepared by diluting Donor Beads 50-fold in dilution buffer. Five μL of the Donor Mix was added to each well and the plate sealed and covered with foil and incubated for 1 hour at room temperature in the dark. The plates were read on a Neo2 plate reader instrument from Biotek using standard AlphaLisa settings. Compounds were tested in duplicate and the average % inhibition at each compound concentration was used to generate a single dose response curve. The data were processed using the Genedata-Screener tool. Relative IC50 values were determined using luminescence units by calculating percent inhibition with respect to the in-plate “MIN” (GDC-0032 reference control) and “MAX” (DMSO) controls. The data was analyzed using a 4-parameter nonlinear logistic equation (four-parameter logistic concentration-response curve): Y=bottom+[(top−bottom)/1+(X/IC50)slope] where Y=% inhibition, X=concentration of inhibitor, bottom=minimum value of y attained by curve-fit, top=maximum value of y attained by curve-fit and slope=steepness of curve at the IC50. % Inhibition=[(signal at X−median Min)/(median Max−median Min)]×100 IC50: concentration of compound that reduces a given response (ligand binding, enzyme response) by 50%. Relative IC50: concentration giving half the compound's maximum response.
In general terms: Alpha assays give light when donor and acceptor beads are brought close together.

The term IC50 denotes the concentration at which inhibition is half-maximal. `Cc1cc(C(C)Nc2ccc(Cl)nc2C(=O)O)c2oc(-c3ccc4cc[nH]c4n3)cc(=O)c2c1` (stereo not drawn) [Example 195, 6-Chloro-3-[1-[6-methyl-4-oxo-2-(1H-pyrrolo[2,3-b]pyridin-6-yl)chromen-8-yl]ethylamino]pyridine-2-carboxylic acid]: the IC50 in assay [1] is 500 to 1000 nM; in assay [2], below 500 nM; in assay [3], below 50 nM.

For `Cc1cc([C@@H](C)Nc2ccccc2C(=O)O)c2oc(-c3ccc4nc(C)sc4c3)c(C)c(=O)c2c1` [Example 262, 2-[[(1R)-1-[3,6-Dimethyl-2-(2-methyl-1,3-benzothiazol-6-yl)-4-oxo-chromen-8-yl]ethyl]amino]benzoic acid], the results for the 50% inhibitory concentration (IC50) in assay [1], in assay [2] and in assay [3] were 500 to 1000 nM, below 500 nM and below 50 nM, respectively.

Regarding `Cc1cc([C@@H](C)Nc2ccccc2C(=O)O)c2oc(-c3cc4cnccc4o3)c(C(F)(F)F)c(=O)c2c1` [Example 209, 2-[[(1R)-1-[2-Furo[3,2-c]pyridin-2-yl-6-methyl-4-oxo-3-(trifluoromethyl)chromen-8-yl]ethyl]amino]benzoic acid], the IC50 in assay [1] was 500 to 1000 nM; in assay [2], below 500 nM; in assay [3], below 50 nM.

With `Cc1cc([C@@H](C)Nc2cccnc2C(=O)O)c2oc(-c3ccc4nc(C)sc4n3)c(C)c(=O)c2c1` [Example 243, 3-[[(1R)-1-[3,6-Dimethyl-2-(2-methylthiazolo[5,4-b]pyridin-5-yl)-4-oxo-chromen-8-yl]ethyl]amino]pyridine-2-carboxylic acid], the concentration for half-maximal inhibition (IC50) in assay [1] lay in the range of 1000 to 5000 nM; in assay [2], 1000 to 5000 nM; in assay [3], 100 to 500 nM.

In the case of `Cc1cc(C(C)Nc2ccc(Cl)nc2C(=O)O)c2oc(-c3nn(C)c4ccccc34)c(C)c(=O)c2c1` (single isomer, unassigned) [Example 170, 6-Chloro-3-[1-[3,6-dimethyl-2-(1-methylindazol-3-yl)-4-oxo-chromen-8-yl]ethylamino]pyridine-2-carboxylic acid], the IC50 in assay [1] is below 500 nM; in assay [2], below 500 nM; in assay [3], below 50 nM.

Consider `CC(Nc1ccccc1C(=O)O)c1cc(F)cc2c(=O)cc(-c3ccc4nn(C)cc4c3)oc12` (single isomer, unassigned) [Example 55, 2-[1-[6-Fluoro-2-(2-methylindazol-5-yl)-4-oxo-chromen-8-yl]ethylamino]benzoic acid], for which the figures for the half-inhibitory concentration (IC50) in assay [1], in assay [2] and in assay [3] were 1000 to 5000 nM, below 500 nM and below 50 nM, respectively.

`Cc1cc(C(C)Nc2cccc(F)c2C(=O)O)c2oc(-c3cc(C)c4nn(C)cc4c3)cc(=O)c2c1` (single isomer, unassigned) [Example 190, 2-[1-[2-(2,7-Dimethylindazol-5-yl)-6-methyl-4-oxo-chromen-8-yl]ethylamino]-6-fluoro-benzoic acid]: the IC50 in assay [1] was 500 to 1000 nM; in assay [2], below 500 nM; in assay [3] it was 50 to 100 nM.

Consider `Cc1cc(C(C)Nc2ccccc2C(=O)O)c2oc(-c3ccc4cnn(C)c4n3)cc(=O)c2c1` (single isomer, unassigned) [Example 82, 2-[1-[6-Methyl-2-(1-methylpyrazolo[3,4-b]pyridin-6-yl)-4-oxo-chromen-8-yl]ethylamino]benzoic acid], for which the IC50 was 500 to 1000 nM in assay [1], below 500 nM in assay [2] and 100 to 500 nM in assay [3].

`Cc1cc(C(C)Nc2ccccc2C(=O)O)c2oc(-c3cc4cccnc4cn3)cc(=O)c2c1` (single isomer, unassigned) [Example 187, 2-[1-[6-Methyl-2-(1,7-naphthyridin-6-yl)-4-oxo-chromen-8-yl]ethylamino]benzoic acid]: the 50% inhibitory concentration (IC50) is 1000 to 5000 nM in assay [1], below 500 nM in assay [2] and below 50 nM in assay [3].

Turning to `Cc1cc([C@@H](C)Nc2cccnc2C(=O)O)c2oc(-c3ccc4nn(C)cc4c3)c(C)c(=O)c2c1` [Example 240, 3-[[(1R)-1-[3,6-Dimethyl-2-(2-methylindazol-5-yl)-4-oxo-chromen-8-yl]ethyl]amino]pyridine-2-carboxylic acid], the IC50 in assay [1] lay within 1000 to 5000 nM; in assay [2] it was 500 to 1000 nM; in assay [3] it was 50 to 100 nM.

For `Cc1cc([C@@H](C)Nc2ccc(C(F)(F)F)cc2C(=O)O)c2oc(-c3ccc4nn(C)cc4c3)c(C)c(=O)c2c1` [Example 235, 2-[[(1R)-1-[3,6-Dimethyl-2-(2-methylindazol-5-yl)-4-oxo-chromen-8-yl]ethyl]amino]-5-(trifluoromethyl)benzoic acid], the IC50 in assay [1] was 1000 to 5000 nM; in assay [2], below 500 nM; in assay [3], 50 to 100 nM.

Consider `Cc1cc(C(C)Nc2ccccc2C(=O)O)c2oc(-c3cnc4ccccn34)cc(=O)c2c1` (single isomer, unassigned) [Example 145, 2-[1-(2-Imidazo[1,2-a]pyridin-3-yl-6-methyl-4-oxo-chromen-8-yl)ethylamino]benzoic acid], for which the IC50 in assay [1] was 1000 to 5000 nM; in assay [2] it was below 500 nM; in assay [3], 100 to 500 nM.

For the molecule `Cc1cc([C@@H](C)Nc2ccc(C(F)(F)F)cc2C(=O)O)c2oc(-c3ccc4nc(C)sc4n3)c(C)c(=O)c2c1` [Example 234, 2-[[(1R)-1-[3,6-Dimethyl-2-(2-methylthiazolo[5,4-b]pyridin-5-yl)-4-oxo-chromen-8-yl]ethyl]amino]-5-(trifluoromethyl)benzoic acid], the IC50 in assay [1] lay within 1000 to 5000 nM; in assay [2], 1000 to 5000 nM; in assay [3], 100 to 500 nM.

In the case of `Cc1cc(C(C)Nc2ccccc2C(=O)O)c2oc(-c3ccc4[nH]ncc4c3)c(C)c(=O)c2c1` (single isomer, unassigned) [Example 132, 2-[1-[2-(1H-Indazol-5-yl)-3,6-dimethyl-4-oxo-chromen-8-yl]ethylamino]benzoic acid], the IC50 in assay [1] is 500 to 1000 nM; in assay [2], below 500 nM; in assay [3], below 50 nM.

Take `Cc1cc(C(C)Nc2ccccc2C(=O)O)c2oc(-c3cc(F)c4nn(C)cc4c3)cc(=O)c2c1` (single isomer, unassigned) [Example 97, 2-[1-[2-(7-Fluoro-2-methyl-indazol-5-yl)-6-methyl-4-oxo-chromen-8-yl]ethylamino]benzoic acid]: the figures for the IC50 in assay [1], in assay [2] and in assay [3] were 1000 to 5000 nM, below 500 nM and below 50 nM, respectively.

For `Cc1cc([C@@H](C)Nc2ccccc2C(=O)O)c2oc(-c3ccc4nc(C)oc4n3)c(C)c(=O)c2c1` [Example 256, 2-[[(1R)-1-[3,6-Dimethyl-2-(2-methyloxazolo[5,4-b]pyridin-5-yl)-4-oxo-chromen-8-yl]ethyl]amino]benzoic acid], the IC50 in assay [1] is 500 to 1000 nM; in assay [2] it was below 500 nM; in assay [3] it was below 50 nM.

Regarding `Cc1cc(C(C)Nc2cccc(F)c2C(=O)O)c2oc(-c3ccc4cnn(C)c4c3)cc(=O)c2c1` (single isomer, unassigned) [Example 221, 2-fluoro-6-[1-[6-methyl-2-(1-methylindazol-6-yl)-4-oxo-chromen-8-yl]ethylamino]benzoic acid], the concentration for half-maximal inhibition (IC50) is 500 to 1000 nM in assay [1], 1000 to 5000 nM in assay [2] and above 500 nM in assay [3].
